The experiment concerns hIgG expression. Description: Expression enhancers in the transient transfection system, hIgG yield. As to conditions: enhancer added alone to transient transfection; vs. control with neither Enhancer 1 nor Enhancer 2. It is filed as cell-based.

Source text: Components were formulated into 2 stable Enhancer solutions.

Turning to `CCCC(CCC)C(=O)O` [Enhancer 1, valproic acid], the “effect on hIgG expression” value was “doubles hIgG expression”. Next, `CCC(=O)[O-].[Na+]` [Enhancer 2, sodium propionate]: “no strong effect alone”.

(Values after patent US11498949B2, “System and method for high-yield transient expression in mammalian cells” (LIFE TECHNLOLOGIES CORPORATION, priority 2012, dated 2022).)
